# Data published in patent US12344649B2, “Modulators of parathyroid hormone receptor (PTHR1)” (Flagship Pioneering Innovations VI, LLC, priority 2019, dated 2025).
# Values joined by “and” are separate entries in the source; they are usually repeats but may differ in a detail not shown here. Equal entries are not always repeated. Where no end group is shown, it is not given here.
# Columns and labels:
# Assay type in all cases: cell-based
# [1] = biological target: T1, PTHR1 (Homo sapiens, UniProt Q03431); experiment: cAMP accumulation assay (HTRF) in CHO-K1/Ga15/PTHR1 cells; parameters: host or cells: CHO-K1 (recombinant line CHO-K1/Ga15/PTHR1); conditions: for Emax: CHO-K1, cAMP assay, fitted dose-response maximum; for EC50: read-out: −log10EC50 (converted)
# T1 sequence (Q03431 27-593): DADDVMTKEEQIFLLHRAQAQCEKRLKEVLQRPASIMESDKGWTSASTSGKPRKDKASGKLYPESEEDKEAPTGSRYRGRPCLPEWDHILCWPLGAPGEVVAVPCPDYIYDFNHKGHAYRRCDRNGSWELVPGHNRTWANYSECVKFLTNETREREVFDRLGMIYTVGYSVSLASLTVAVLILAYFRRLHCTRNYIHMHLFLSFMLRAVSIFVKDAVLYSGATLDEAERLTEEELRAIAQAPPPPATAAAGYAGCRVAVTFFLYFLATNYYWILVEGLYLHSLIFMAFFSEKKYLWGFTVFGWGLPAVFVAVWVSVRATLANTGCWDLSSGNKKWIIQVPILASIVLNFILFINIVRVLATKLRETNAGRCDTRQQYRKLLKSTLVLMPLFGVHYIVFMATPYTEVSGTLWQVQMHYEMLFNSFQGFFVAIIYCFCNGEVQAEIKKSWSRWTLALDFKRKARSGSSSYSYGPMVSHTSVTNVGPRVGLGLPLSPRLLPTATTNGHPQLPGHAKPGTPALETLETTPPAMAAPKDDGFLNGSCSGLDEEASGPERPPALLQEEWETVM
# Experimental: Cell suspension (5 μL) was seeded in 384-well plates at a density of 3,000 cells/well. Cells were treated with test samples (5 μL) or agonist (PTH 1-34) for 30 minutes at room temperature. cAMP-d2 working solution (5 μL) and anti-cAMP-Cryptate working solution (5 μL) were added to cells and incubated for 60 minutes at room temperature. The signal of the assay plate was read with PheraStar (BMG LABTECH, NC), an HTRF compatible reader.
# [2] = biological target: T1, PTHR1; experiment: β-arrestin1 recruitment BRET assay in transfected HEK293T cells; parameters: Flag (N); Life Technologies Corporation, CA (arrestin cDNA); host or cells: HEK293T (CRL-3216, ATCC); conditions: for −log10Slope / EC50: β-arrestin1 recruitment, replicate plates; for −log10Slope: fitted curve slope; for EC50: read-out: −log10EC50 (converted)
# Experimental: (§1) 18-24 hours post transfection, the Luciferase substrate Coelenterazine (NanoLight Technologies, AZ) was added to cells, a baseline BRET measurement was taken after 5 minutes incubation, and then serial dilutions of peptides, diluted in PBS (with 0.5 mM MgCl2+0.1% BSA FAF), were added to cells, and BRET signal was measured every 2 minutes for 30 minutes on Hybrid Multi-Mode Reader (Synergy Neo2, BioTek, VT). Seventy-five peptides were tested in the β-arrestin recruitment assay.
# [3] = biological target: T1, PTHR1; experiment: β-arrestin2 recruitment BRET assay in transfected HEK293T cells; parameters: Flag (N); Life Technologies Corporation, CA (arrestin cDNA); host or cells: HEK293T (CRL-3216, ATCC); conditions: for −log10Slope / EC50: β-arrestin2 recruitment, replicate plates; for −log10Slope: fitted curve slope; for β-arrestin2 assay activity compared to control peptide: FIG. 2, PTH 1-34 positive control; for β2-arrestin: relative to PTH [1-34], HEK293T cells, BRET; for EC50: read-out: −log10EC50 (converted)
# Experimental: as §1
# [4] = cAMP assay, fitted dose-response curve
# [5] = cAMP assay, fitted dose-response slope
# [6] = cAMP accumulation, fitted curve slope, replicate plates
# [7] = cAMP accumulation, replicate plates
Emax [1] [%],"EC50 [1, 4] [nM]","−log10Slope [1, 5]","β1-arrestin ([2]; relative to PTH [1-34], HEK293T cells, BRET)",−log10Slope [2],EC50 [2] [nM],−log10Slope [3],"cAMP ([1]; relative to PTH [1-34], CHO-K1/Ga15/PTHR1 cells)","−log10Slope [1, 6]","EC50 [1, 7] [nM]",β2-arrestin [3],EC50 [3] [nM],Sequence,"β-arrestin1 recruitment compared to PTH 1-34 ([2]; FIG. 1, PTH 1-34 positive control)","cAMP accumulation activity compared to control peptide ([1]; FIG. 3, PTH 1-34 positive control)",β-arrestin2 assay activity compared to control peptide [3]
97.4,2570,−3.437,++,2.312,0.149,−0.9875,,,,,,GIAVITLMLLRAYLELLEELVKILHELLRRYH [Peptide R2-52],higher levels of recruitment of β-arrestin 1,,
3.99,0.105,10.26,,−1.524,29400,−5.93,++,,,,,GIAVITLMVLRALLELQEIGRKITLELLKEYI [Peptide R2-51],,increased activity as compared to the control peptide,
,,,,−0.1441,,−1.954,,−5.896,95.8,++,0.622,GVAELQLMHDLAKIRAEYELREMLLRLLEEIF [Peptide R2-1],,,increased activity as compared to control
,,,,−1.586 and −3.87,,2.528 and −0.3398,,−3.889,187,,,GVAMIQIMHDIAKIRAEYELREMLLRLLEEIF [Peptide R2-2],,,
99.8,574,−8.416,,−3.908 and −4.767,1200,−1.169 and 10.26,,,,++,0.0304,GVAMLQIMHDLAKIKQELELKDSMKKILEDVL [Peptide R2-50],,,increased activity as compared to control
,,,,−2.339,3.7,4.445,,−24.9299,31.9,++,0.349,SVMMIQVMHDLAKIRAEYELREMLLRLLEEIF [Peptide R2-8],,,increased activity as compared to control
